Test results as given in patent US20070049564A1 (Wyeth, priority 2005, published 2007).
Values after ≈ are worked out from the molar mass of the structure shown. Read-outs that look alike come from different tables or passages of the source.

What was measured:
[1] = test system: S. aureus GC 2216; assay: MIC, broth microdilution; settings: Staphylococcus aureus
Procedure: Antimicrobial susceptibility testing. The in vitro activities of the antibiotics are determined by the broth microdilution method as recommended by the National Committee for Clinical Laboratory Standards (NCCLS) (1). Mueller-Hinton II broth (MHBII)(BBL Cockeysville, Md.) is the medium employed in the testing procedures. Microtiter plates containing serial dilutions of each antimicrobial agent are inoculated with each organism to yield the appropriate density (10^5 CFU/ml) in a 100 μl final volume. The plates are incubated for 18-22 hours at 35° C. in ambient air. […] Standard Pharmacological Test Procedures
Presented in Tables I-XIII are representative compounds of Formula I which were evaluated against a panel of 40 selected gram-positive and gram-negative bacteria strains by pre-incubation in water, mouse serum or human serum. Representative compounds were first incubated in mouse serum for an hour prior to the in vitro testing against a panel of selected gram-positive and gram-negative bacteria strains. All compounds were also pre-incubated in water for an hour prior to testing as control. Representative compounds of Formula I were incubated in human serum prior to MIC determination.

[2] = test system: S. agalactiae GC 4564; assay: MIC, broth microdilution; settings: Streptococcus agalactiae
[3] = test system: S. pneumoniae+ GC 4465; assay: MIC, broth microdilution; settings: Streptococcus pneumoniae
[4] = test system: E. coli GC 2232; assay: MIC, broth microdilution; settings: Escherichia coli
[5] = test system: S. aureus GC 4536; assay: MIC, broth microdilution; settings: Staphylococcus aureus
[6] = test system: E. coli; assay: Range of MIC for E. coli strains; settings: Escherichia coli
[7] = test system: S. pneumoniae* GC 4465; assay: MIC, broth microdilution; settings: Streptococcus pneumoniae
[8] = test system: E. coli GC 2234; assay: MIC, broth microdilution; settings: Escherichia coli
[9] = test system: E. coli GC 4559; assay: MIC, broth microdilution; settings: Escherichia coli
[10] = test system: S. pyogenes GC 4563; assay: MIC, broth microdilution; settings: Streptococcus pyogenes
[11] = test system: E. faecalis GC 2242; assay: MIC, broth microdilution; settings: Enterococcus faecalis
[12] = test system: E. faecalis GC 4555; assay: MIC, broth microdilution; settings: Enterococcus faecalis
[13] = test system: S. typhimurium GC 2172; assay: MIC, broth microdilution; settings: Salmonella enterica, TYPHIMURIUM
[14] = test system: E. coli GC 2231; assay: MIC, broth microdilution; settings: Escherichia coli
[15] = test system: Staph. aureus Smith; assay: In vivo activity (oral, iv; ED50) against Staph. aureus Smith in mice
Procedure: Representative examples of compounds of Formula I were tested for the oral efficacy using S. aureus Smith in mice.

[16] = test system: E. coli GC 2236; assay: MIC, broth microdilution; settings: Escherichia coli
[17] = test system: E. coli GC 2235; assay: MIC, broth microdilution; settings: Escherichia coli
[18] = test system: E. faecium GC 4556; assay: MIC, broth microdilution; settings: Enterococcus faecium
[19] = test system: S. aureus GC 6466; assay: MIC, broth microdilution; settings: Staphylococcus aureus
[20] = test system: Staph.; assay: Range of MIC for Staph. strains, including MRSA; settings: Staphylococcus aureus
Procedure: Antimicrobial susceptibility testing. The in vitro activities of the antibiotics are determined by the broth microdilution method as recommended by the National Committee for Clinical Laboratory Standards (NCCLS) (1). Mueller-Hinton II broth (MHBII)(BBL Cockeysville, Md.) is the medium employed in the testing procedures. Microtiter plates containing serial dilutions of each antimicrobial agent are inoculated with each organism to yield the appropriate density (10^5 CFU/ml) in a 100 μl final volume. The plates are incubated for 18-22 hours at 35° C. in ambient air.
Representative compounds were first incubated in mouse serum for an hour prior to the in vitro testing against a panel of selected gram-positive and gram-negative bacteria strains. All compounds were also pre-incubated in water for an hour prior to testing as control. Representative compounds of Formula I were incubated in human serum prior to MIC determination.

[21] = read-out: MINIMAL INHIBITORY CONCENTRATION MIC, pre-incubated in Mouse Serum
[22] = read-out: MINIMAL INHIBITORY CONCENTRATION MIC, pre-incubated in Water

CCCN(CC(=O)Nc1cc(N(C)C)c2c(c1O)C(=O)C1=C(O)[C@]3(O)C(=O)C(C(N)=O)=C(O)[C@@H](N(C)C)[C@@H]3C[C@@H]1C2)C(=O)OCOC(=O)c1ccsc1 [Example 27, ({[(2-{[(5aR,6aS,7S,10aS)-9-(aminocarbonyl)-4,7-bis(dimethylamino)-1,8,10a,11-tetrahydroxy-10,12-dioxo-5,5a,6,6a,7,10,10a,12-octahydrotetracen-2-yl]amino}-2-oxoethyl)(propyl)amino]carbonyl}oxy)methyl thiophene-3-carboxylate] gave an MIC ([1]; GC2216, read-out: MINIMAL INHIBITORY CONCENTRATION MIC, pre-incubated in Mouse Serum) of 0.25 µg/mL (≈ 0.331 µM), an MIC ([1]; GC2216, read-out: MINIMAL INHIBITORY CONCENTRATION MIC, pre-incubated in Water) of 0.25 µg/mL (≈ 0.331 µM) and an MIC ([2]; GC4564, read-out: MINIMAL INHIBITORY CONCENTRATION MIC, pre-incubated in Mouse Serum) of 0.12 µg/mL (≈ 0.159 µM). For the same compound, the MIC ([2]; GC4564, read-out: MINIMAL INHIBITORY CONCENTRATION MIC, pre-incubated in Water) was 0.12 µg/mL (≈ 0.159 µM), the MIC [3, 21] was 1 µg/mL (≈ 1.32 µM) and the MIC [3, 22] was 2 µg/mL (≈ 2.65 µM). It also gave an MIC ([4]; GC2232, read-out: MINIMAL INHIBITORY CONCENTRATION MIC, pre-incubated in Mouse Serum) of 0.5 µg/mL (≈ 0.662 µM), an MIC ([4]; GC2232, read-out: MINIMAL INHIBITORY CONCENTRATION MIC, pre-incubated in Water) of 64 µg/mL (≈ 84.7 µM) and an MIC ([5]; GC4536, read-out: MINIMAL INHIBITORY CONCENTRATION MIC, pre-incubated in Mouse Serum) of 0.12 µg/mL (≈ 0.159 µM). The MIC ([5]; GC4536, read-out: MINIMAL INHIBITORY CONCENTRATION MIC, pre-incubated in Water) was 0.12 µg/mL (≈ 0.159 µM), the MIC ([6]; 20 h, read-out: Range of MIC, E. coli (Mouse Serum)) was 0.5 to 1 µg/mL (≈ 0.662 to 1.32 µM) and the MIC ([6]; read-out: Minimum inhibitory concentration (MIC), E. coli (Human Serum)) was 4 to 16 µg/mL (≈ 5.29 to 21.2 µM). For the same compound, the MIC ([6]; read-out: Range of MIC, E. coli (mouse serum)) was 0.5 to 1 µg/mL (≈ 0.662 to 1.32 µM), the MIC [7, 21] was < 0.06 µg/mL and the MIC [7, 22] was < 0.06 µg/mL. For the same compound, the MIC ([8]; GC2234, read-out: MINIMAL INHIBITORY CONCENTRATION MIC, pre-incubated in Mouse Serum) was 0.5 µg/mL (≈ 0.662 µM), the MIC ([8]; GC2234, read-out: MINIMAL INHIBITORY CONCENTRATION MIC, pre-incubated in Water) was 64 µg/mL (≈ 84.7 µM) and the MIC ([9]; GC4559, read-out: MINIMAL INHIBITORY CONCENTRATION MIC, pre-incubated in Mouse Serum) was 0.5 µg/mL (≈ 0.662 µM). The MIC ([9]; GC4559, read-out: MINIMAL INHIBITORY CONCENTRATION MIC, pre-incubated in Water) was > 64 µg/mL, the MIC ([10]; GC4563, read-out: MINIMAL INHIBITORY CONCENTRATION MIC, pre-incubated in Mouse Serum) was < 0.06 µg/mL and the MIC ([10]; GC4563, read-out: MINIMAL INHIBITORY CONCENTRATION MIC, pre-incubated in Water) was < 0.06 µg/mL. It also gave an MIC ([11]; GC2242, read-out: MINIMAL INHIBITORY CONCENTRATION MIC, pre-incubated in Mouse Serum) of 0.5 µg/mL (≈ 0.662 µM), an MIC ([11]; GC2242, read-out: MINIMAL INHIBITORY CONCENTRATION MIC, pre-incubated in Water) of 0.5 µg/mL (≈ 0.662 µM) and an MIC ([12]; GC4555, read-out: MINIMAL INHIBITORY CONCENTRATION MIC, pre-incubated in Mouse Serum) of 0.25 µg/mL (≈ 0.331 µM). The MIC ([12]; GC4555, read-out: MINIMAL INHIBITORY CONCENTRATION MIC, pre-incubated in Water) was 1 µg/mL (≈ 1.32 µM), the MIC [13, 21] was 4 µg/mL (≈ 5.29 µM) and the MIC [13, 22] was > 64 µg/mL. The MIC ([14]; GC2231, read-out: MINIMAL INHIBITORY CONCENTRATION MIC, pre-incubated in Mouse Serum) was 1 µg/mL (≈ 1.32 µM), the MIC ([14]; GC2231, read-out: MINIMAL INHIBITORY CONCENTRATION MIC, pre-incubated in Water) was > 64 µg/mL and the ED50 ([15]; Staphylococcus aureus, in Mus musculus, iv, read-out: ED50 SIV (Staph aureus Smith)) was 0.44 mg/kg. It also gave an ED50 ([15]; Staphylococcus aureus, in Mus musculus, po, read-out: ED50 SOD (Staph aureus Smith)) of 3.9 mg/kg, an ED50 ([15]; Staphylococcus aureus, in Mus musculus, po, read-out: ED50 Staph Smith SOD) of 3.9 mg/kg and an ED50 ([15]; iv, read-out: ED50 Staph Smith SIV) of 0.44 mg/kg. It also gave an MIC ([16]; GC2236, read-out: MINIMAL INHIBITORY CONCENTRATION MIC, pre-incubated in Mouse Serum) of 0.5 µg/mL (≈ 0.662 µM), an MIC ([16]; GC2236, read-out: MINIMAL INHIBITORY CONCENTRATION MIC, pre-incubated in Water) of 64 µg/mL (≈ 84.7 µM) and an MIC ([17]; GC2235, read-out: MINIMAL INHIBITORY CONCENTRATION MIC, pre-incubated in Mouse Serum) of 0.5 µg/mL (≈ 0.662 µM). It also gave an MIC ([17]; GC2235, read-out: MINIMAL INHIBITORY CONCENTRATION MIC, pre-incubated in Water) of 64 µg/mL (≈ 84.7 µM), an MIC ([18]; GC4556, read-out: MINIMAL INHIBITORY CONCENTRATION MIC, pre-incubated in Mouse Serum) of 0.5 µg/mL (≈ 0.662 µM) and an MIC ([18]; GC4556, read-out: MINIMAL INHIBITORY CONCENTRATION MIC, pre-incubated in Water) of 1 µg/mL (≈ 1.32 µM). For the same compound, the MIC ([19]; GC6466, read-out: MINIMAL INHIBITORY CONCENTRATION MIC, pre-incubated in Mouse Serum) was 0.12 µg/mL (≈ 0.159 µM), the MIC ([19]; GC6466, read-out: MINIMAL INHIBITORY CONCENTRATION MIC, pre-incubated in Water) was 0.25 µg/mL (≈ 0.331 µM) and the MIC ([20]; MRSA, read-out: Range of MIC, Staph (Mouse Serum)) was 0.12 to 2 µg/mL (≈ 0.159 to 2.65 µM). For the same compound, the MIC ([20]; MRSA, read-out: Range of MIC, Staph (Water)) was 0.12 to 2 µg/mL (≈ 0.159 to 2.65 µM), the MIC ([20]; MRSA, read-out: Range of MIC, Staph. (mouse serum)) was 0.12 to 2 µg/mL (≈ 0.159 to 2.65 µM) and the MIC ([20]; MRSA, read-out: Range of MIC, Staph. (water)) was 0.12 to 2 µg/mL (≈ 0.159 to 2.65 µM). It also gave an MIC ([20]; read-out: Minimum inhibitory concentration (MIC), Staph (Human Serum)) of 0.25 to 2 µg/mL (≈ 0.331 to 2.65 µM) and an MIC ([20]; read-out: Minimum inhibitory concentration (MIC), Staph (Water)) of 0.5 to 4 µg/mL (≈ 0.662 to 5.29 µM).
